Where two headings read alike, the source gives them in different places.
Legend:
[1] = after oral administration of tramadol (single dose of 100 mg); cited from earlier work
[2] = Example 1: multiple-dose randomized 3-way crossover PK study of two IV tramadol regimens vs 100 mg oral q6h; conditions: mean; for AUCtau n: last dosing interval
Protocol: A fitted curve was obtained because the second oral peak was not measured in the study. For the modeling portion of the analysis, a validated Phoenix® WinNonlin® program version 6.4 (Certara) was used for PK analysis, simulation, graphics, tables and statistical calculations. […] For purposes of nonlinear regression, the data were weighted as 1/observed. Predicted concentration-time data were calculated based on the individual fitted PK parameters.

[3] = Example 4: multiple dose steady-state dose proportionality study, tramadol injection 50/100 mg IV and Ultram tablet 50/100 mg oral q6h; assay type: in vivo, human; conditions: steady-state, healthy volunteers
Protocol: The study was an open-label, single-period, randomized, parallel treatment design. Subjects received study drug every 6 hours beginning on the morning of Day 1 and ending on the morning of Day 3. The first dose on Day 1 and the last dose on Day 3 were administered after a minimum 10 hour fast.

[4] = system: patients undergoing abdominal surgery; conditions: initial tramadol 100 mg or morphine 5 mg i.v., repeat tramadol 50 mg or morphine 5 mg on demand; cited from earlier work
postoperative pain = conditions: after 4 to 6 hours; IV or IM intermittent injection, dose titrated to pain response; cited from earlier work
[5] = system: experienced opioid abusers; conditions: tramadol 100 and 200 mg IV, cited from earlier work
[6] = tramadol single […] [100 mg] p.o., humans N=12 male; cited from earlier work
[7] = 50 mg IV regimen (h 0, 2, 4, then q4h to h 44), plasma
[8] = 75 mg IV regimen (h 0, 3, 6, then q6h to h 42)
[9] = 75 mg IV regimen (h 0, 3, 6, then q6h to h 42), plasma
[10] = 100 mg oral q6h to h 42, plasma
[11] = Tramadol dosed as 50 mg IV every 6 hours
[12] = Tramadol dosed as 50 mg Oral (Ultram tablet) every 6 hours
[13] = Tramadol dosed as 100 mg IV every 6 hours
[14] = Tramadol dosed as 100 gm Oral (Ultram tablet) every 6 hours

## CN(C)C[C@H]1CCCC[C@]1(O)c1cccc(O)c1 [O-desmethyltramadol]
[1]
  half-life: approximately 6.7 hours
[2]; 50 mg IV regimen (h 0, 2, 4, then q4h to h 44), first dose, plasma
  Cmax(0-2): 17.1 ng/mL
[2]; 50 mg IV regimen (h 0, 2, 4, then q4h to h 44)
  RAC(trough): 5.2872
[2]; [7]
  AUC0-24: 1425 ng·h/mL
  AUC0-48: 3427 ng·h/mL
  AUC24-48: 2002 ng·h/mL
  C2: 16.9 ng/mL
  C48 (T48): 81.7 ng/mL
  C1 h: 11.8 ng/mL
  Cmax(2-4): 37.8 ng/mL
  Css: 88.9 ng/mL
  Tmax: 44.95 h
  Tmax(0-2): 1.85 h
  Tmax(2-4): 3.95 h
  Tmax(44-48): 45.31 h
[2]; 75 mg IV regimen (h 0, 3, 6, then q6h to h 42), first dose, plasma
  Cmax(0-3): 29.7 ng/mL
[2]; [8]
  AUCtau n: 519.8 ng·h/mL
  RAC(trough): 2.7237
[2]; [9]
  AUC0-24: 1608 ng·h/mL
  AUC0-48: 3504 ng·h/mL
  AUC24-48: 1896 ng·h/mL
  C3: 29.5 ng/mL
  C48 (T48): 75.9 ng/mL
  C1 h: 19.9 ng/mL
  Cmax(3-6): 59.4 ng/mL
  Css: 86.6 ng/mL
  Tmax: 32.99 h
  Tmax(0-3): 2.71 h
  Tmax(3-6): 5.81 h
  Tmax(42-48): 43.10 h
[2]; 100 mg oral q6h to h 42, first dose, plasma
  Cmax(0-6): 60.3 ng/mL
[2]; 100 mg oral q6h to h 42
  AUCtau n: 768.4 ng·h/mL
  RAC(trough): 2.7839
[2]; [10]
  AUC0-24: 1655 ng·h/mL
  AUC0-48: 4349 ng·h/mL
  AUC24-48: 2693 ng·h/mL
  C6: 42.3 ng/mL
  C48 (T48): 111 ng/mL
  C1 h: 41.4 ng/mL
  Cmax: 146 ng/mL
  Css: 128 ng/mL
  Tmax: 43.97 h
  Tmax(0-6): 2.04 h
  Tmax(42-48): 43.97 h
[2]; 100 mg oral q6h to h 42, steady-state, plasma
  Cmax(42-48): 146 ng/mL

## CN(C)C[C@H]1CCCC[C@]1(O)c1cccc(O)c1 [tramadol M1 metabolite]
[3]; [11]
  Cmin, tramadol M1 metabolite, Mean ± SD: 55.9 ± 7.4 ng/mL
  Trough Peak, tramadol M1 metabolite, Mean ± SD: 0.715 ± 0.044 ratio
[3]; [12]
  Cmin, tramadol M1 metabolite, Mean ± SD: 65.9 ± 15.8 ng/mL
  Trough Peak, tramadol M1 metabolite, Mean ± SD: 0.670 ± 0.061 ratio
[3]; [13]
  Cmin, tramadol M1 metabolite, Mean ± SD: 130 ± 37 ng/mL
  Trough Peak, tramadol M1 metabolite, Mean ± SD: 0.795 ± 0.040 ratio
[3]; [14]
  Cmin, tramadol M1 metabolite, Mean ± SD: 93.6 ± 34.6 ng/mL
  Trough Peak, tramadol M1 metabolite, Mean ± SD: 0.707 ± 0.080 ratio

## CN1CC[C@]23c4c5ccc(O)c4O[C@H]2[C@@H](O)C=C[C@H]3[C@H]1C5 [morphine]
[4]
  responder rate (no or slight pain) within the first 90 minutes of treatment: 81.2%
Postoperative pain
  reduction of pain intensity: 69.8%
[5]; morphine 10 and 20 mg IV, over 5 minutes, 10 experienced opioid abusers
  ratings of “liking”: significantly increased ratings
[5]; morphine 10 and 20 mg IV, over 5 minutes
  ratings of “feel drug effect” compared to placebo: significantly increased
[5]; morphine 20 mg IV
  ratings on the ARCI-MBG scale: increased ratings

## (+)-O-desmethyltramadol [(+)-M1]
[6]
  AUC: 1258 ± 410 ng·h/mL
  Cmax: 147 ± 39 ng/mL
  Tmax: 1.6 ± 0.5 h
  t1/2: 6.0 ± 1.0 h

— patent US10537521B2 (priority 2016, dated 2020)
